Data published in patent US12318400B2, “Brown and beige adipocyte activating agent containing D-allulose as active ingredient” (NATIONAL UNIVERSITY CORPORATION KAGAWA UNIVERSITY, priority 2018, dated 2025).
Entries after “also recorded” stand apart in the source; their conditions may differ.

Columns and labels:
[1] = tested on: beige adipocytes; experiment: Example 3: marker expression in beige adipocytes of HFD-loaded mice after D-allulose; type: in vivo
Protocol: (§1) (Purpose) The influence of D-allulose administration to mice on their brown adipose tissue is confirmed. In addition, differentiation of beige adipocytes is studied with a change in UCP-1 expression or the like as a marker. Mice are divided into two groups, each group having five mice. Eight-week-old mice of each group are loaded with a high fat diet (HFD). From four weeks after loading with HFD, one of the groups is loaded with HFD continuously. To the other group, D-allulose (0.2 mg/body weight g/day) together with HFD is administered to the stomach by a sonde. Until week 10, the body weight, food intake, water intake, and blood glucose level are monitored. The administration of D-allulose has a possibility of contributing a weight loss by inducing beige adipocytes and activating brown adipocytes. • 9) With regard to the details of the induction of beige adipocytes and the activation of brown adipocytes caused by D-allulose administration, expression of UCP-1 and Prdm16 which are genes involved in thermogenesis, Pgcl-α and Tfam which are genes reflecting the mitochondrial function of organelle involved in thermogenesis, and PPARγ which is a gene related to the differentiation of fat are investigated and the results are shown in FIG. 19.

[2] = tested on: UCP-1, PPAR-α, PGC-1α; experiment: Example 1: expression levels of UCP-1, PPAR-α and PGC-1α as activation of brown adipocytes; type: in vivo, mice; conditions: HFD+2% D-allulose vs HFD
Protocol: (§2) In Examples of the present invention, activation of brown adipocytes was evaluated by the expression level of UCP-1, PPAR-α, or PGC-1α. The influence of administration of D-allulose, one of rare sugars, on brown adipocytes (BAT: abbreviation of brown adipose tissue) was studied. The experiment was performed using 6-week mice and the mice were divided into 3 groups, each group having 5 mice. The treatment was made as follows for 8 weeks. • (1) A group of normal diet and drinking of water (Normal food) • (2) A group of high fat diet and drinking of water (HFD) • (3) A group of high fat diet and drinking of water containing 2% D-allulose (D-allulose) (HFD+2% D-allulose) 2. Evaluation item: • (1) Transition of Body Weight • Transition of Blood Glucose • (2) Size and weight of brown adipocytes under the scapula • (3) Pathological evaluation of the morphological change in brown adipocytes • (4) Evaluation of UCP-1, PPAR-α, and PGC-1α expression levels as activation of brown adipocytes 3.

[3] = tested on: type 2 diabetic patients; experiment: Example 2: human clinical test of D-allulose (D-psicose) in type 2 diabetic patients; type: in vivo
From the text: Type 2 diabetic patients unable to get sufficient effects by any of the following treatments (HbA1c: 6.5% or more) […] • 1) Only diet therapy and exercise therapy • 2) Drug therapy in addition to diet therapy and exercise therapy <Exclusion Standards> • 1) Patients having a contraindication to D-allulose (D-psicose) administration • 2) Patients who are participating in another clinical trial • 3) Pregnant women, parturients, lactating women, or women who may be pregnant • 4) Patients having 8% or more HbA1c and poor in blood glucose control • 5) Patients recognized to have severe renal dysfunction (serum creatinine level: 1.5 mg/dl or more) • 6) Patients having another severe complication <Experimenting Method> D-allulose (D-psicose) powders: provided as sticks each containing 5 g/pack (product of Rare Sweet) It was orally administered with 5 g per dose three times a day. Twelve type 2 diabetic patients (4 male cases, 8 female cases) who could be observed for 3 months were compared for general findings and blood test before administration and 12 weeks after administration (Wilcoxon signed rank test).

[4] = tested on: brown adipocytes (BAT); experiment: Example 1: high fat diet mice given 2% D-allulose drinking water, body weight, blood glucose and brown adipocytes; type: in vivo
Protocol: as §2, with “The” for “In Examples of the present invention, activation of brown adipocytes was evaluated by the expression level of UCP-1, PPAR-α, or PGC-1α. The”

[5] = tested on: cell line derived from a single clone from BAT of the adult supraclavicular fossa; experiment: Differentiation induction into beige adipocytes in cells (BAT-protocol, WAT-protocol) with addition of D-allulose; type: cell-based
From the text: FIG. 21 is a drawing for describing, with regard to an experiment using cells (a single-clone-derived cell strain is established from BAT of adult supraclavicular fossa portion and is used as a research model of differentiation induction into beige adipocytes), two protocols, that is, BAT-protocol and WAT-protocol, for inducing beige adipocytes. FIG. 22 is a drawing for describing, in an experiment using cells, protocols including two protocols, that is, BAT-protocol and WAT-protocol, for inducing beige adipocytes and further including addition of D-allulose. […] They are presumed to participate in the activation of brown adipocytes. • 10) FIG. 20 is a drawing for describing two protocols for inducing beige adipocytes, that is, BAT-protocol and WAT-protocol used in an experiment using cells (a cell line derived from a single clone from BAT of the adult supraclavicular fossa is established and used as a research model of the differentiation induction into beige adipocytes). FIG. 21 is a drawing for describing a protocol including two protocols for inducing beige adipocytes, that is, BAT-protocol and WAT-protocol and further including addition of D-allulose in an experiment using cells.

[6] = tested on: brown adipose tissue (BAT); type: in vivo, mice
Protocol: FIG. 10 is a drawing for describing the procedure (protocol) of the experiment of Example 3. Mice are divided into two groups, with one group having five mice. Eight-week-old mice of each group are loaded with a high fat diet (HFD). From four weeks after loading with HFD, one of the groups is loaded with HFD continuously. To the other group, D-allulose (0.2 mg/body weight g/day), in addition to HFD, is administered to the stomach by a sonde. Until week 10, the body weight, food intake, water intake, and blood glucose level are monitored. Glucose was intraperitoneally administered and the blood glucose level after 0, 15, 30, 60, 90, and 120 minutes were measured.

[7] = tested on: brown adipocytes; experiment: Example 3: marker expression in brown adipocytes of HFD-loaded mice after D-allulose; type: in vivo
Protocol: as §1

[8] = after administration vs before administration
[9] = before vs 12 weeks after administration, 5 g three times a day
[10] = 6-week mice, HFD+2% D-allulose water, 8 weeks, vs HFD group
[11] = presence or absence of D-allulose
[12] = HFD mice, D-allulose administered group
[13] = classical brown adipose tissue, HFD-loaded mice

For `O=C(CO)[C@H](O)[C@H](O)[C@H](O)CO` [D-allulose], the “UCP-1 mRNA expression” value ([1]; HFD-loaded mice) was “significantly increased”, the UCP-1 protein expression ([1]; HFD-loaded mice) was “significantly increased” and the PPARγ gene expression ([1]; gene panel) was “increased”. The Pgcl-α gene expression ([1]; gene panel) was “increased”, the Prdm16 gene expression ([1]; gene panel) was “increased” and the Tfam gene expression ([1]; gene panel) was “increased”. The UCP-1 gene expression ([1]; gene panel) was “increased”, the PGC-1α expression level [2] was “induced more strongly” and the PPAR-α expression level [2] was “induced more strongly”. The UCP-1 expression level [2] was “induced UCP-1 further”, the TNF-α level ([3]; 2 months after administration) was “significant decrease” and the “Body weight decrease on average” value ([3]; 5 g three times a day orally, 3 months after administration, 12 patients) was 1 kg. The Body weight ([3]; 5 g three times a day orally, after 3 months) was “significant decrease in body weight”, the MCP-1 level [3, 8] was “significantly decreased” and the TNF-α level [3, 8] was “significantly decreased”. The GA [3, 9] was “No significant difference”, the HbA1c [3, 9] was “No significant difference” and the adiponectin [3, 9] was “No significant difference”. For the same molecule, the leptin [3, 9] was “No significant difference”, the “Transition of blood glucose” value [4, 10] was “a decrease in blood glucose was recognized” and the “Transition of body weight” value [4, 10] was “a decrease in body weight was observed”. The “Size and weight of brown adipocytes under the scapula” value ([4]; HFD+2% D-allulose, 8 weeks, vs HFD group) was “an increase in brown adipocytes was recognized”, the “Pathological evaluation of the morphological change in brown adipocytes” value ([4]; HFD+2% D-allulose, tissue staining, vs HFD group (steatosis)) was “improved to have almost a normal state; also recorded: almost morphologically similar to that of the normal diet intake group” and the “Expression of all the markers” value ([5]; D-allulose administered group, markers UCP-1, Prdm16, Pgc-1α, tfam, cox8b, PPARγ) was “significantly increased”. For the same molecule, the PPARγ expression ([5]; WAT-protocol) was “enhances the expression”, the Pgc-1α expression ([5]; WAT-protocol) was “enhances the expression” and the Prdm16 expression ([5]; WAT-protocol) was “enhances the expression”. The UCP-1 protein expression ([5]; WAT-protocol) was “slightly enhances”, the “oil-red-O (fat staining)” value ([5]; addition of D-allulose to the differentiation inducing protocol) was “promotes” and the PPARγ expression ([5]; both differentiation protocols) was “enhances expression of PPARγ”. For the same molecule, the PPARγ expression [5, 11] was “increased”, the UCP-1 expression [5, 11] was “increased” and the “Increasing degree of body weight” value ([6]; HFD mice, D-allulose 0.2 mg/body weight g/day by sonde, from week 2 after administration is started) was “lowers significantly”. The “Fasting blood glucose level” value ([6]; HFD mice, D-allulose 0.2 mg/body weight g/day, from week 3 after administration is started) was “a reduction in fasting blood glucose level is observed”, the “Area of brown adipocytes (BAT)” value [6, 12] was “increase” and the “Weight of brown adipocytes (BAT)” value [6, 12] was “increase”. The “Blood glucose level in the glucose loading test” value ([6]; after 10 weeks, glucose intraperitoneally, after 90 and 120 minutes, vs control group) was “significantly decreases”, the Food intake ([6]; mouse, in vivo) was “no significant change” and the Water intake ([6]; mouse, in vivo) was “no significant change”. The Prdm16 gene expression ([7]; brown adipocytes, gene panel) was “increase”, the Tfam gene expression ([7]; brown adipocytes, gene panel) was “increase” and the UCP-1 gene expression ([7]; brown adipocytes, gene panel) was “increase”. For the same molecule, the “UCP-1 mRNA expression” value [7, 13] was “increased” and the UCP-1 protein expression [7, 13] was “increased”.
